Holding throughout (assay): NCI tumour cell line growth inhibition, 48 h
The test system of assay [1] is EKVX NSCLC.
In assay [2] the test system is MOLT-4 leukemia.
Assay [3] deals with OVCAR-4 ovarian.
For assay [4], the system named is RPMI-8226 leukemia.
Assay [5] relates to SK-MEL-28 melanoma.
Assay [6] deals with SNB-19 CNS.
Assay [7] deals with A498 renal.
In assay [8] the test system is NCI-H522 lung.
Assay [9] relates to DU-145 prostate.

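1) Cells in 96-well plates. 2) Compound, 48 h, 5 concentrations. 3) Linear interpolation between surrounding doses. 4) Unreached endpoint = highest concentration. Abbreviation: GI50, concentration required for 50% inhibition of growth. TGI denotes the concentration required for complete inhibition of growth.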 Where a SMILES comes first, the peptide text is derived from it. Bridges are numbered along the chain shown (N, C = ends).

With `CN(CCc1ccccn1)/[N+]([O-])=N/O` (tested in a mixture with another compound), the TGI in [1], in [2], in [3], in assay [4], in assay [5] and in assay [6] was over 100 µM throughout.

Consider `C=C1CCCC2OC(OC)CCC12` (stereo not given), for which the TGI in assay [7], in [1], in assay [2], in assay [8], in assay [3] and in assay [4] was over 100 µM throughout. In assay [6], the TGI is over 100 µM.

With `CCCCCCCCC1C(C)c2c([nH]c3ccccc23)C2C(=O)N(c3ccccc3)C(=O)C21` (stereo not given), the TGI amounted to 36.9 µM in [7]; 51.1 µM in assay [1]; 7.18 µM in [2]; 15.8 µM in [3]; 12.9 µM in [4]; 34.3 µM in assay [5].

As for `CCC(C)C1NC(=O)C(CC(C)C)NC(=O)C(C(C)C)NC(=O)C2CSSCC(NC1=O)C(=O)N2` (stereo not given) (cyclo(CCVLI); disulfide 1-2; configuration not given here), the TGI in [9] came to 301 nM; in assay [1] it was 0.452 µM; in assay [8], 0.355 µM; in assay [3], 0.362 µM; in assay [5] it was 0.269 µM; in assay [6] it was 0.344 µM.

Consider `CSC(=NC(=O)c1ccccc1)SCCSC(=NC(=O)c1ccccc1)SC`, for which the TGI in [7] was over 100 µM; in assay [1], over 100 µM; in [2] it was over 100 µM; in [8], over 100 µM; in assay [3], 87.6 µM; in assay [4] it was over 100 µM. The TGI in assay [5] and in [6] was over 100 µM in each case.

In the case of `O=C(O)CC(S)C(=O)O.[Li+].[Sb]` (stereo not given), the GI50 in [7] is over 100 µM; in assay [9], over 100 µM; in assay [1] it was over 100 µM; in assay [2] it was 64.8 µM; in assay [3], over 100 µM; in assay [4], 63.3 µM. Also, the GI50 in assay [5] was 55.5 µM; in [6], over 100 µM. The TGI is over 100 µM in [7]; over 100000 nM in assay [9]; over 100 µM in assay [1]; over 100 µM in assay [2]; over 100 µM in assay [3]; over 100 µM in [4]. Besides, the TGI in assay [5] and in [6] was over 100 µM in each case.

On to `CC1(C)C=C(N2CCN(C3=CC(C)(C)NC(C)(C)C3)CC2)CC(C)(C)N1`, for which the TGI in [7], in [1], in [2], in [8], in assay [3] and in assay [4] was over 100 µM throughout. Moreover, the TGI in [5] and in [6] was over 100 µM each time.

In the case of `O=C(CC1(O)C(=O)Nc2c(Cl)cc(Cl)cc21)c1ccc([N+](=O)[O-])cc1` (stereo not given), the TGI in [7] was over 67.9 µM; in assay [1], over 61.9 µM; in assay [2], over 100 µM; in [8] it was 46.4 µM; in [3], 31.2 µM; in assay [4] it was over 82.1 µM. The TGI in assay [5] was over 59.6 µM; in [6] it was over 100 µM.

For the compound `CC(=O)CCn1[nH]c(=O)c(Cl)c(Cl)c1=O`, the TGI in [7], in [1], in assay [2], in assay [3], in [4] and in [5] was over 100 µM each time. The compound also displayed a TGI in [6] of 31.1 µM.

As for `CC(/C=C1\CCC(CN(C)C)C1=O)c1cccc(Br)c1` (stereo not given), the TGI in [7] was over 58.5 µM; in assay [1] it was 42 µM; in assay [2] it was 13.3 µM; in assay [8], 22 µM; in [3] it was 32.3 µM; in assay [4], 6.08 µM. Besides, the TGI in assay [5] turned out to be 31.5 µM; in assay [6] it was 61.2 µM.

Consider `O=C1C(c2ccccc2)=[N+]([O-])c2cc([N+](=O)[O-])ccc21`, for which the TGI in [7] was over 100 µM; in [1], 34.5 µM; in assay [2], 51.6 µM; in assay [8] it was 29.1 µM; in assay [4] it was 74 µM; in assay [5] it was 48.4 µM. The TGI in assay [6] was over 100 µM.

With `COc1ccc(C(=O)Nc2ccn(CCOC(=O)c3ccc(OC)cc3)c(=O)n2)cc1`, the TGI in assay [7], in [1], in [8], in [3], in [4] and in assay [5] was over 100 µM each time.

Regarding `CCCc1nn(C)c(CCC(=O)N(Cc2ccccc2)Cc2ccccc2)c1CC`, the TGI in assay [7], in [1], in [8], in [3], in assay [4] and in assay [5] was over 100 µM each time. In [6], this compound showed a TGI of over 100 µM.

With `CC1=C(C(=O)Nc2ccccc2C)C(c2ccccc2O)C(C(=O)Nc2ccccc2C)=C(C)N1`, the TGI is 64.8 µM in assay [7]; over 100 µM in [1]; over 100 µM in assay [2]; 54.8 µM in [3]; 66.8 µM in assay [4]; 59.1 µM in assay [5]. This compound also showed a TGI in [6] of over 100 µM.

Consider `CCCCCCCCCCCCCP(=O)(OC)OC`, for which the TGI is 39.5 µM in assay [1]; 36.5 µM in assay [2]; 26.6 µM in assay [8]; 34.6 µM in [3]; 50.7 µM in [4]; 39.1 µM in assay [5]. Further, the TGI in assay [6] was determined as 38.6 µM.

Turning to `Cc1ccc(-c2nc3ccccc3c(=O)n2NC2OC(CO)C(O)C(O)C2O)cc1` (stereo not given), the TGI in assay [7], in assay [1], in assay [2], in assay [8], in assay [3] and in [4] was over 100 µM in each case. For the same compound, the TGI in assay [5] and in assay [6] was over 100 µM throughout.

As to `CCCCCC1CC=CC(NC(=O)OCc2ccccc2)C1/C=C/CCCC1OCCO1` (stereo not given), the TGI in assay [7] was 98.7 µM; in assay [1], over 100 µM; in [2], over 100 µM; in assay [8], over 100 µM; in [3] it was over 100 µM; in assay [4], over 100 µM. Further, the TGI in assay [5] and in assay [6] was over 100 µM in each case.

`CC(=O)OC(C)(C)C[N+](=O)[O-]`: the TGI in [1], in [2], in [8], in assay [3], in assay [4] and in assay [5] was over 100 µM throughout. In assay [6], the TGI is over 100 µM.

In the case of `COC(=O)/C(=N\Nc1nc(=S)[nH]n1N)C(C#N)c1ccc(Cl)cc1` (stereo not given), the TGI in [7], in assay [1], in assay [3], in [4], in assay [5] and in [6] was over 100 µM throughout.

Regarding `CCN(CC)CCCNc1nccc2c(C)c3[nH]c4ccncc4c(=O)c3cc12`, the TGI in [7] was found to be 24 µM; in assay [1], 35.7 µM; in [2], 2.51 µM; in assay [8], 1.86 µM; in assay [3], 3.07 µM; in assay [4], 13.7 µM. The TGI came to 13.4 µM in [5] and 28.4 µM in assay [6].

On to `c1ccc(N2CCN(CCCN3CCc4c([nH]c5ccccc45)C3c3cccnc3)CC2)cc1` (stereo not given), for which the TGI in [7], in [1], in assay [2], in assay [8], in [3] and in assay [4] was over 100 µM each time. The TGI in assay [5] and in assay [6] was over 100 µM throughout.

As for `CCC1=CCC(P(=O)(c2ccccc2)c2ccccc2)CC1C` (stereo not given), the TGI in assay [7] was over 100 µM; in assay [1] it was over 100 µM; in [2] it was 46.2 µM; in assay [8] it was 47.4 µM; in [3] it was over 100 µM; in assay [4], 52.9 µM. In addition, the TGI in assay [5] and in assay [6] was over 100 µM in each case.

In the case of `CC[C@@]1(O)C(=O)OCc2c1cc1n(c2=O)Cc2cc3cccc(N)c3nc2-1`, the GI50 is 7.17 µM in assay [7]; 33 µM in assay [1]; 2.35 µM in [2]; 3.92 µM in assay [8]; 7.57 µM in assay [3]; over 100 µM in [4]. Also, the GI50 is over 100 µM in assay [5] and 5.77 µM in [6]. Further, the TGI was 60.3 µM in [7]; over 100 µM in [1]; over 100 µM in assay [2]; over 100 µM in [8]; over 100 µM in assay [3]; over 100 µM in assay [4]. In addition, the figures for the TGI in assay [5] and in [6] were over 100 µM and 50.3 µM, respectively.

Turning to `C=C(C)C1CC=C(C)C(O)([C@@]2(O)C[C@H](C(=C)C)CC=C2C)C1` (stereo not given in full), the TGI is 58.2 µM in [7]; 43.9 µM in assay [2]; 41.5 µM in [8]; 56.2 µM in [3]; 48.7 µM in assay [4]; 95.9 µM in assay [5]. Also, the TGI in assay [6] was over 100 µM.

The values are drawn from PubChem BioAssay (NCI).
